According to patent publication US20240083944A1 (priority 2021, published 2024):
Starred links: 1 amine or outer side, 2 acyl side, 3 side chain; linkers in the order of their positions; H or OH if unused. Positions of bridges follow the written chain, without caps; N, C: chain ends. Non-standard residues stand in square brackets, D forms with d. Chains are numbered I, II in the order given. X3 = O=C(CCCc1ccc(I)cc1)NCCOCCOCCOCCOCCOCCOCCOCCOCCOCCOCCn1cc(CCC(=O)NC(COCCC(=O)NCCOCCOCCOCCOCCOCCOCCOCCOCCOCCOCCn2cc(CCC(=O)[*:1])nn2)(COCCC(=O)NCCOCCOCCOCCOCCOCCOCCOCCOCCOCCOCCn2cc(CCC(=O)[*:2])nn2)COCCC(=O)NCCOCCOCCOCCOCCOCCOCCOCCOCCOCCOCCn2cc(CCC(=O)[*:3])nn2)nn1; X2 = O=C(CCOCCN(CCOCCC(=O)NCCOCCOCCOCCOCCOCCOCCOCCOCCOCCOCCn1cc(CCC(=O)[*:2])nn1)CCOCCC(=O)NCCOCCOCCOCCOCCOCCOCCOCCOCCOCCOCCn1cc(CCC(=O)[*:3])nn1)NCCOCCOCCOCCOCCOCCOCCOCCOCCOCCOCCn1cc(CCC(=O)[*:1])nn1; X1 = C(c1nc(C[*:2])nc(C[*:3])n1)[*:1]; hArg = N=C(N)NCCCC[C@H](N)C(=O)O; tBuAla = CC(C)(C)C[C@H](N)C(=O)O; Agb = N=C(N)NCC[C@H](N)C(=O)O

Assays:
[1] = test system: SARS-CoV-2 pseudotyped HIV-1 virions, B.1.1.7 (Alpha)
SARS-CoV-2 = test: Mouse Efficacy Model; format: in vivo, male K18-hACE2 mice; details: 100 mg/kg (tid) for three days, mice infected with SARS-CoV-2
[2] = Pharmacokinetic analysis in mouse; format: in vivo; details: 3 mg/kg; for half-life: in vivo
Description: In one embodiment, the multimeric binding complex additionally comprises a half-life extending moiety. References herein to half-life extending moieities refer to any moiety capable of extending the half-life of the resultant multimeric binding complex in vivo when compared to the half-life of said multimeric binding complex in the absence of said half-life extending moiety.

Substance | IC50 [1] | total viral RNA in nasal turbinate (SARS-CoV-2; FIG. 4 (A)) | subgenomic RNA in nasal turbinate (SARS-CoV-2; FIG. 4 (B)) | total viral RNA in lung (SARS-CoV-2; FIG. 4 (C)) | subgenomic RNA in lung (SARS-CoV-2; FIG. 4 (D)) | half-life [2] | half-life improvement ([2]; BCY19602 versus BCY18208 (no half-life extending moiety))
I: Ac-CPYVAG[Agb][dA]TCL[tBuAla]CK-NH2 / II: Ac-CPYVAG[Agb][dA]TCL[tBuAla]CK-NH2 / III: Ac-CPYVAG[Agb][dA]TCL[tBuAla]CK-NH2 (linker I:1-I:10-I:13, II:1-II:10-II:13, III:1-III:10-III:13 via X1; linker I:14-II:14-III:14 via X2) [BCY17021] | 0.3 nM | reduction of total viral RNA in nasal turbinate | reduction of subgenomic RNA in nasal turbinate | reduction of total viral RNA in lung | reduction of subgenomic RNA in lung |  | 
I: Ac-CPYVAG[hArg][dA]TCL[tBuAla]CK-NH2 / II: Ac-CPYVAG[hArg][dA]TCL[tBuAla]CK-NH2 / III: Ac-CPYVAG[hArg][dA]TCL[tBuAla]CK-NH2 (linker I:1-I:10-I:13, II:1-II:10-II:13, III:1-III:10-III:13 via X1; linker I:14-II:14-III:14 via X2) [BCY18208] |  |  |  |  |  | 0.3 h | 
I: Ac-CPYVAG[hArg][dA]TCL[tBuAla]CK-NH2 / II: Ac-CPYVAG[hArg][dA]TCL[tBuAla]CK-NH2 / III: Ac-CPYVAG[hArg][dA]TCL[tBuAla]CK-NH2 (linker I:1-I:10-I:13, II:1-II:10-II:13, III:1-III:10-III:13 via X1; linker I:14-II:14-III:14 via X3) [BCY19602] |  |  |  |  |  | 3.1 h | 10 fold
